This experiment is described as follows: Inhibition of HIV1 3B reverse transcriptase activity infected in human H9 cells assessed as level of p24 antigen.

Regarding `CC1(C)O[C@H]2CC(=O)OC[C@]23[C@H]2CC[C@@]4(C)[C@H](c5ccoc5)OC(=O)[C@H]5O[C@]54[C@]2(C)C(=O)C[C@@H]13` [Limonin], the concentration for half-maximal inhibition (IC50) stood at 4.48 nM.

By IC50 is commonly meant the concentration at which inhibition is half-maximal.

Source of the values: BindingDB's records for doi:10.1016/j.bmc.2011.01.024 (University of Rome Tor Vergata, 2011).
